Values joined by “and” are separate entries in the source; they are usually repeats but may differ in a detail not shown here. Identical values can stand only once. “Also recorded” adds a separate entry of the source.
What was measured:
[1] = Comparative tranquilizing effects: four plates test; assay type: in vivo; conditions: for ED50: 1 h, 60 min. after administration, doses between 0.5 and 4 mg/kg, confidence limits for P = 0.05; for Duration of effect: compounds 1 and 4 compared
Text: The method utilized was the 4 plates test of J. R. Boissier, et al (European J. of Pharm. 1968, Vol. 4, pages 145-151).

[2] = Reduction in motor activity between 60 and 90 minutes; assay type: in vivo; conditions: for Reduction in Motor Activity Between 60 and 90 Minutes: significance NS (comp. 1), 0.002 (comp. 4); for changes in motor activity / voluntary motility: in vivo
[3] = Acute toxicity comparison (LD50, Litchfield and Wilcoxan); conditions: in vivo; for LD50: Table 11, oral, species not given
Method: Toxicity in test animals to the test compounds in terms of LD50 after oral and intraperitoneal administration was determined according to the procedure of Litchfield and Wilcoxan (1949) and the hypnotic effect on test animals was determined in accordance with the method of Janssen (1959).

[4] = Conditioned emotional response (CER), tone paired with foot shock; assay type: in vivo
Method: Conditioned emotional response (CER) in test animals was conventionally determined by a tone paired with a foot shock which was presented to hungry animals trained to press a lever for intermittent food reinforcement. After a few such pairings, the presence of the tone alone was sufficient to disrupt the lever pressing behavior. CER is considered a model of behavior anxiety in animals. […] Thus, a 1.25 mg/kg os of compounds 1 and 4 respectively produced about a 350 and 630% increase in CER while a 5 mg/kg os of compounds 1 and 4 respectively produced about 920 and 1600% increase.

[5] = ECoG and sedation in test animals free to move; assay type: in vivo; conditions: for duration of the ECoG effect / first signs of sedation: 7.5 mg/kg intragastric, animals free to move; for duration of ECoG effects (three compounds compared): unrestricted animals, compound 3 at 10 mg/kg
Method: Some test animals were kept in restraint cases placed in a relatively soundproof room and some were left free to move in metal cases measuring 40×50×30 cm, which were also kept in a relatively quiet environment.
In the test animals which were free to move, the first signs of sedation produced by the intragastric administration of 7.5 mg/kg of compounds 1 and 4 appeared, respectively, at 16 minutes (compound 1) and at 8 minutes (compound 4). […] The duration of the effect was, however, shorter, not exceeding 3 hours under these conditions in contrast to the 5 hour minimum for restricted animals.

[6] = Electrogenesis of various subcortical centers; assay type: in vivo; conditions: for EEG activity of the hippocampus: in vivo
Method: This study was conducted with test animals weighing between 2.6 and 2.8 kg, following the stereotaxic method of Monnier and Gangloff (Atlas et techniques stereotaxique pour le cerveau du lopin eveille, 1961, Elsevier Pub. Co.), permitting the stimulation of certain subcortical structures as well as a simultaneous detection and recording of their electrical activities, which were compared to that of reference cortical electrodes. In this study, the subcortical centers considered were the caudate nucleus, the dorsal hippocampus, the lateral thalamus, the mesenephalic reticular formation, and the hypothalamic reticular formation. Test compounds 1 and 4 were administered by the intragastric route with an identical dose of 7.5 mg/kg.
Spontaneous activity in the subcortical centers of the unanesthetized animals is characterized by desynchronized activity consisting of high amplitude and relatively slow rhythms (4 to 5 c/sec.), alternating with low amplitude rapid rhythms (12 to 13 c/sec.). Tracings from the hippocampus and caudate nucleus sometimes takes the form of bursts, which is less commonly the case from the thalamus. These may occur at the same time as bursts of rapid spikes arising from the frontal cortex. During periods of arousal, this desynchronized activity is followed by a synchronized theta rhythm (7 to 8 c/sec.) from the hippocampus and caudate nucleus and from the median thalamus, whereas the cortical and reticular electrical activities are transformed into ultra-rapid and low voltage rhythms (30μ volts).

[7] = Cortical and hippocampal arousal thresholds on stimulation of MRF, median thalamus and posterior hypothalamus; assay type: in vivo; conditions: 7.5 mg/kg intragastric
Method: The test animals in this study were prepared by the techniques described by Monnier and Gangloff under the preceding study (infra B, page 30). Stimulation consisted of a series of waves delivered at a frequency of 200 c/sec., lasting 0.3 m sec., with a total duration of the stimulus being 5 sec. These shocks were delivered by a Neurovar neurostimulator (Alvar Electronic) coupled with a CRC cathode oscilloscope (type OC 343). Cerebral electrical activity was recorded on a REEGA MINI HUIT electroencephalograph (Alvar Electronic). The test animals were kept in restraint cages in a relatively soundproof room.
The activity of compounds 1 and 4 was tested in a series of six test animals for each compound, with a single dose of 7.5 mg/kg administered by the intragastric route. In each animal, the arousal threshold was determined for two of the three structures tested so that for each compound, each of the three structures stimulated were tested four times.
In making the baseline tracing, the threshold voltage was determined by a finding that the duration of the arousal reaction produced by the 5-second stimulation exceeded the duration of the stimulation by at least 5 seconds, that is, for a minimum of 10 seconds.
The various thresholds were determined every 45 minutes after administration of the compounds, for a total period of four and one-half hours.
The critical value for raising of a threshold was fixed at 0.1 volts. This constituted the maximum variation recorded during 41/2 hours in the control animals.
The results were taken in two forms and then summarized. In the first result, each animal was observed, yielding the values for the thresholds recorded at each time interval as well as the ratios of the values obtained in each of the stimulated structures.

[8] = tested on: posterior amygdaloid complex; assay: Amygdaloid after-discharge (stimulation of posterior amygdaloid complex); assay type: in vivo; conditions: 7.5 mg/kg intragastric; for Duration of Amygdaloid After-Discharge: individual animals
Method: The test animals for this study were also prepared according to the technique described by Monnier and Gangloff (infra B, page 30) and the animals were kept in restraint cages in a relatively soundproof room.
The activity of test compounds 1 and 4 was assessed in identical groups of test animals for each compound, with identical numbers of animals for hippocampal after-discharges and for amygdaloid after-discharges. A dose of 7.5 mg/kg of each test compound was adminstered by the intragastric route. In each animal, after-discharges were triggered every 45 minutes after the administration of a test compound.
The stimulation consisted of a series of waves with a duration of 3 m sec., delivered at a frequency of 40 c/sec., with 5 seconds as the total duration of the stimulation. The shocks were delivered by a Neurovar neurostimulator (Alvar Electronic), coupled to a CRC cathode oscilloscope (type OC 343). Cerebral electric activity was recorded by REEGA MINI HUIT electroencephalograph (Alvar Electronic).

[9] = Posterior hypothalamus stimulation

Row | Compound | ED50 [1] [mg/kg] | Duration of effect [1] | Reduction in Motor Activity Between 60 and 90 Minutes ([2]; 1 mg/kg) | Reduction in Motor Activity Between 60 and 90 Minutes ([2]; 3 mg/kg) [%] | changes in motor activity / voluntary motility [2] | LD50 [3] [mg/kg] | increase in CER ([4]; 1.25 mg/kg os) [%] | increase in CER ([4]; 5 mg/kg os) | duration of the ECoG effect [5] [h] | first signs of sedation [5] [min] | duration of ECoG effects (three compounds compared) [5] | caudate nucleus spikes ([6]; 7.5 mg/kg intragastric) | thalamic rhythms ([6]; 7.5 mg/kg intragastric) | EEG activity of the hippocampus [6] | effect on arousal pathways (in words) [7] | % of Mean Variation of arousal threshold, Cortex ([7]; MRF stimulation) | % of Mean Variation of arousal threshold, Hippocampus ([7]; MRF stimulation) | % of Mean Variation of arousal threshold, Cortex ([7]; Median Thalamus stimulation) | % of Mean Variation of arousal threshold, Hippocampus ([7]; Median Thalamus stimulation) | % of Mean Variation of arousal threshold, Cortex ([7]; Posterior Hippocampus) | also measured
1 | C#CCN1C(=O)CN=C(c2ccccc2)c2cc(Cl)ccc21 [Compound 1, 7-chloro-2,3-dihydro-5-phenyl-1-propargyl-1H-1,4-benzodiazepin-2-one] | 1.75 | comparable | +19% | -20 | does not produce changes in motor activity | 5820 | ~350 | about 920% | ≤ 3 | 16 | about 31/2 | definite effect of compound 1 on the caudate nucleus | greater amplitude and lower frequency | slow and of high amplitude; also recorded: increase the amplitude of these activities and also reduce their frequency | preferentially reduces the excitability of the hypothalamo-cortical and hippocampal pathways; also recorded: moderately reduced in duration | +57% | +50% | +67% | +73% | +83% | median anxiolytic dose (AD50) compared with compound 4 ([1]; four-plate study): nearly three times less than that of compound 4; anxiolytic effect compared with compound 4 ([1]; in vivo): more effective anxiolytic effect than compound 4; oral toxicity compared with Compounds 3 or 4 ([3]; po): lower oral toxicity; activity in antagonizing tone-induced disruption compared with Compound 4 ([4]; in vivo): about twice as active as Compound 4; caudate nucleus bursts of rapid spikes, time of maximum periodicity ([6]; 7.5 mg/kg intragastric): 45 min; % of Mean Variation of arousal threshold, Hippocampus [7, 9]: +78%; effect on amygdaloid after-discharge [8]: lasting inhibitory effect; also recorded: slightly more pronounced; Duration of Amygdaloid After-Discharge ([8]; 45 Mins.): 15 s and 0 s and 35 s and 22 s; Duration of Amygdaloid After-Discharge ([8]; 90 Mins.): 17 s and 0 s and 27 s; Duration of Amygdaloid After-Discharge ([8]; 135 Mins.): 46 s and 0 s and 37 s; Duration of Amygdaloid After-Discharge ([8]; 180 Mins.): 17 s and 0 s and 34 s; Duration of Amygdaloid After-Discharge ([8]; 225 Mins.): 42 s and 46 s and 0 s and 35 s; Duration of Amygdaloid After-Discharge ([8]; 270 Mins.): 45 s and 62 s and 0 s and 30 s
2 | C#CCN1C(=O)CN=C(c2ccccc2Cl)c2cc(Cl)ccc21 [Compound 4, 7-chloro-2,3-dihydro-5-(2-chlorophenyl)-1-propargyl-1,H-1,4-benzodiazepine-2-one] | 5.5 | comparable | -69% | -82 | reduces voluntary motility | > 5000 | ~630 | ~1600% | ≤ 3 | 8 | about 31/2 | less distinguishable | greater amplitude and lower frequency | slow and of high amplitude; also recorded: increase the amplitude of these activities and also reduce their frequency | substantially raised the cortical and hippocampal arousal thresholds following stimulation of the reticular formation of the brain stem; also recorded: posterior hypothalamus appeared to be little affected; also recorded: moderately reduced in duration | +311% | +308% | +67% | +67% | +56% | usability of 4 plates test ([1]; over 3 mg/kg): caused motor activity to be so reduced that 4 plates test; duration of slowing of mesencephalic and hypothalamic reticular formation activity ([6]; 7.5 mg/kg intragastric): ≥ 135 min; % of Mean Variation of arousal threshold, Hippocampus [7, 9]: +60%; effect on amygdaloid after-discharge [8]: lasting inhibitory effect; Duration of Amygdaloid After-Discharge ([8]; 45 Mins.): 29 s and 43 s and 30 s and 35 s; Duration of Amygdaloid After-Discharge ([8]; 90 Mins.): 32 s and 46 s and 33 s and 40 s and 16 s; Duration of Amygdaloid After-Discharge ([8]; 135 Mins.): 35 s and 27 s and 40 s and 26 s; Duration of Amygdaloid After-Discharge ([8]; 180 Mins.): 33 s and 29 s and 48 s; Duration of Amygdaloid After-Discharge ([8]; 225 Mins.): 37 s and 35 s and 34 s and 41 s; Duration of Amygdaloid After-Discharge ([8]; 270 Mins.): 38 s and 42 s and 37 s and 39 s and 50 s

Source: patent US4313943A, “7-Chloro-2,3-dihydro-5-phenyl-1-propargyl-1H-1,4-benzodiazepine-2-one, and a pharmaceutical composition thereof” (priority 1972, dated 1982)
